Measured values reported in the supplement of paper PMC7600603.

Legend:
[1] = tested on: DLD1 NRF2-GOF; conditions: 72 h; CellTiter-Glo viability
Outline: (§1)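 EC50 and drug sensitivity score, the latter a normalised area under the curve, were calculated from logistic dose-response fits. The fits had four parameters and used CellTiter-Glo viability data read on a Pherastar FS reader 72 h after treatment, normalised to vehicle wells and 100-μM positive-control wells. Treated cells were isogenic DLD1 colorectal cancer cells, NRF2 wild-type or CRISPR gain-of-function, exposed in 384-well plates to library compounds at 5 concentrations spanning a 10,000-fold range.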

[2] = tested on: DLD1 NRF2-WT; conditions: 72 h; CellTiter-Glo viability
Outline: as §1

[3] = tested on: DLD1 NRF2-GOF; assay: TC50 cytotoxicity; higher = less toxic; conditions: 72 h; CellTox Green cytotoxicity
Outline: (§2)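 TC50 and drug sensitivity score, a normalised area under the curve, were derived by logistic dose-response fits of cytotoxicity. The cells were an isogenic DLD1 colorectal cancer pair, NRF2 wild-type or CRISPR-edited, kept in DMEM with 10% FBS. Compounds were tested in 384-well plates at 5 concentrations across a 10,000-fold range for 72 h. Readings with CellTox Green on a Pherastar FS reader were normalised to vehicle wells and 100-μM positive-control wells.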

[4] = tested on: DLD1 NRF2-WT; assay: TC50 cytotoxicity; higher = less toxic; conditions: 72 h; CellTox Green cytotoxicity
Outline: as §2

[5] = tested on: DLD1 NRF2-GOF; assay: drug sensitivity score (DSS) cytotoxicity (DSS score); higher = more toxic; extreme values may be limits of the assay; conditions: 72 h; CellTox Green cytotoxicity
Outline: as §2

[6] = tested on: DLD1 NRF2-WT; assay: as above; conditions: 72 h; CellTox Green cytotoxicity
Outline: as §2

[7] = tested on: DLD1 NRF2-GOF; assay: drug sensitivity score (DSS) viability (DSS score); higher = more sensitive; extreme values may be limits of the assay; conditions: 72 h; CellTiter-Glo viability
Outline: as §1

[8] = tested on: DLD1 NRF2-WT; assay: as above; conditions: 72 h; CellTiter-Glo viability
Outline: as §1

Row | SMILES | EC50 viability [1] [nM] | EC50 viability [2] [nM] | TC50 cytotoxicity [3] [µM] | TC50 cytotoxicity [4] [µM] | drug sensitivity score [5] | drug sensitivity score [6] | drug sensitivity score [7] | drug sensitivity score [8]
1 | O=C(NOCCO)c1ccc2cncn2c1Nc1ccc(I)cc1F [GDC-0623] | > 2500 | 429 | > 2.5 | > 2.5 | 0 | 0 | 0 | 3.3
2 | CCNc1nc(Nc2cc(F)c(C(=O)N3CCOCC3)cc2OC)ncc1C(F)(F)F [GNE-7915] | 253 | 148 | > 1 | > 1 | 0 | 0 | 2.9 | 3.3
3 | CCCc1cc(C)[nH]c(=O)c1CNC(=O)c1cc(-c2ccnc(N3CCN(C)CC3)c2)cc2c1cnn2C(C)C [GSK343] | > 1000 | > 1000 | > 1 | > 1 | 0 | 0 | 0 | 0
4 | CCOC(=O)CCNc1cc(N2CCc3ccccc3CC2)nc(-c2ccccn2)n1 [GSK-J4] | 3550 | 2950 | 2.8 | > 100 | 7.8 | 0 | 16.4 | 17
5 | C[C@H]1C=C2C(=O)O[C@H]3CC[C@@H](C1)[C@@]23O [Galiellalactone] | 414 | > 25000 | > 25 | > 25 | 0 | 0 | 5.1 | 2.8
6 | Cc1cccc(-c2nn3c(c2-c2ccnc4ccc(C(N)=O)cc24)CCC3)n1 [Galunisertib] | 163 | > 1000 | > 1 | > 1 | 0 | 0 | 2.6 | 1.6
7 | Cc1cc(Nc2cc(CN3CCOCC3)c3nc(C)c(Cc4ccc(Cl)cc4F)n3n2)n[nH]1 [Gandotinib] | 2090 | 2280 | 1.62 | 1.89 | 6.1 | 2.8 | 6.2 | 5
8 | CC(C)c1cc(-c2n[nH]c(=O)n2-c2ccc3c(ccn3C)c2)c(O)cc1O [Ganetespib] | 22.8 | 26.6 | > 1 | > 1 | 0 | 0 | 18.4 | 17.9
9 | CN(C)C1CCN(C(=O)c2ccc(NC(=O)Nc3ccc(-c4nc(N5CCOCC5)nc(N5CCOCC5)n4)cc3)cc2)CC1 [Gedatolisib] | 26.6 | 19.6 | > 1 | > 1 | 0 | 0 | 12.6 | 13.5
10 | COc1cc2ncnc(Nc3ccc(F)c(Cl)c3)c2cc1OCCCN1CCOCC1 [Gefitinib] | 4080 | 2460 | > 10 | > 10 | 0 | 0 | 1.5 | 3.7
11 | Nc1ccn([C@@H]2O[C@H](CO)[C@@H](O)C2(F)F)c(=O)n1 [Gemcitabine] | 28.4 | 26.7 | > 1 | > 1 | 0 | 0 | 10.7 | 11.4
12 | CN1CCN(C2CCN(C(=O)Nc3cc(Oc4ccc(NC(=O)C5(C(=O)Nc6ccc(F)cc6)CC5)c(F)c4)ccn3)CC2)CC1 [Golvatinib] | > 2500 | > 2500 | > 2.5 | > 2.5 | 0 | 0 | 0 | 1.2
13 | NC(=O)NO [Hydroxyurea] | 157000 | 364000 | > 1000 | > 1000 | 0 | 0 | 5.8 | 1.7
14 | C=CC(=O)N1CCC[C@@H](n2nc(-c3ccc(Oc4ccccc4)cc3)c3c(N)ncnc32)C1 [Ibrutinib] | > 1000 | > 1000 | > 1 | > 1 | 0 | 0 | 0 | 0.1
15 | CC(=O)[C@]1(O)Cc2c(O)c3c(c(O)c2[C@@H](O[C@H]2C[C@H](N)[C@H](O)[C@H](C)O2)C1)C(=O)c1ccccc1C3=O [Idarubicin] | 96.9 | 45.2 | 0.219 | 0.15 | 2.4 | 4.8 | 10 | 14.2
16 | CC[C@H](Nc1ncnc2[nH]cnc12)c1nc2cccc(F)c2c(=O)n1-c1ccccc1 [Idelalisib] | > 10000 | > 10000 | > 10 | > 10 | 0 | 0 | 2 | 1.6
17 | O=C(Nc1ccncc1)C(=O)c1cn(Cc2ccc(Cl)cc2)c2ccccc12 [Indibulin] | 381 | 283 | > 10 | > 10 | 0 | 0.4 | 7.8 | 8.6
18 | N#Cc1ccnc(N2C(=O)CC[C@H]2C(=O)N(c2cncc(F)c2)[C@H](C(=O)NC2CC(F)(F)C2)c2ccccc2Cl)c1 [Ivosidenib] | 349 | > 10000 | > 10 | > 10 | 0 | 0 | 6.1 | 0.5
19 | C/C(=C\c1csc(C)n1)[C@@H]1C[C@@H]2O[C@]2(C)CCC[C@H](C)[C@H](O)[C@@H](C)C(=O)C(C)(C)[C@@H](O)CC(=O)N1 [Ixabepilone] | 317 | 407 | > 1 | 0.201 | 0.5 | 2.4 | 4.2 | 3.5
20 | CC(C)C[C@H](NC(=O)CNC(=O)c1cc(Cl)ccc1Cl)B(O)O [Ixazomib] | 125 | 110 | 0.246 | 0.148 | 6.8 | 9.6 | 10.3 | 11
21 | Cc1sc2c(c1C)C(c1ccc(Cl)cc1)=N[C@@H](CC(=O)OC(C)(C)C)c1nnc(C)n1-2 [JQ1] | 2710 | 272 | > 10 | > 10 | 0 | 0 | 2.6 | 8.8
